One assay addresses T1, His-hMAGL (recombinant polyhistidine tagged human MAGL protein) (Homo sapiens, UniProt Q99685).
T1 construct: made in house; host or cells: E. coli BL21(DE3)
T1 sequence (Q99685 1-303): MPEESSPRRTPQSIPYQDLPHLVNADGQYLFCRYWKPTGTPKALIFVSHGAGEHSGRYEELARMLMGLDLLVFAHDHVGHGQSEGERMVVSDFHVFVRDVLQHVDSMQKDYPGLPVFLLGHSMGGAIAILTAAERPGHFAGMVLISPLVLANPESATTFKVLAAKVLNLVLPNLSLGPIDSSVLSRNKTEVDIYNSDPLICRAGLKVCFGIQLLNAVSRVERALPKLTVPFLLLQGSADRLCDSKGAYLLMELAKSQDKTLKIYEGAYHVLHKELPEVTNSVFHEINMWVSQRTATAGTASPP
Kind of assay: Measurement of MAGL inhibitory activity (arachidonic acid production from 2-arachidonylglycerol, RapidFire-mass spectrometry). It counts as biochemical. The following applies: MAGL inhibitory rate, test compound 10 μM, 60 min preincubation, 2-arachidonylglycerol substrate. In a few lines: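 Arachidonic acid formed was quantified by online solid-phase extraction and triple-quadrupole MS in negative SRM mode against a d8 internal standard. Reaction: recombinant His-hMAGL (7.5 ng/mL, pH 7.5 Tris buffer with Triton X-100 and BSA) plus 2-AG (5 μL of 150 μM stock) for 10 min at room temperature, quenched with 2% formic acid. Percent inhibition corrected for enzyme-free background.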
For `O=C1CCC2(CN(C(=O)c3sc4cc(-c5cnc(C(F)(F)F)nc5)ccc4c3Cl)C2)N1` [Example 231, 2-((3-chloro-6-(2-(trifluoromethyl)pyrimidin-5-yl)-1-benzothiophen-2-yl)carbonyl)-2,5-diazaspiro[3.4]octan-6-one], the inhibition at 10 µM came out at 97%.

As for `CC(Oc1ccc(F)cc1Cl)C1CN(C(=O)N2CC3(CCC(=O)N3)C2)C1` (centres unmarked) [Example 4, 2-((3-(1-(2-chloro-4-fluorophenoxy)ethyl)azetidin-1-yl)carbonyl)-2,5-diazaspiro[3.4]octan-6-one], the inhibition at 10 µM was 98%.

Consider `O=C1CCC2(CN(C(=O)c3ccc(C(F)(F)c4ccccc4)cc3)C2)N1` [Example 28, 2-(4-(difluoro(phenyl)methyl)benzoyl)-2,5-diazaspiro[3.4]octan-6-one], for which the inhibition at 10 µM was determined as 97%.

As for `Cc1cc(C(F)(F)F)cc2sc(C(=O)N3CCC4(COC(=O)N4)C3)c(Cl)c12` (centres unmarked) [Example 341, 7-((3-chloro-4-methyl-6-(trifluoromethyl)-1-benzothiophen-2-yl)carbonyl)-3-oxa-1,7-diazaspiro[4.4]nonan-2-one], the inhibition at 10 µM worked out at 100%.

Turning to `Cc1cc(-c2ccccc2)sc1C(=O)N1CC2(CCC(=O)N2)C1` [Example 129, 2-((3-methyl-5-phenyl-2-thienyl)carbonyl)-2,5-diazaspiro[3.4]octan-6-one], the inhibition at 10 µM came to 89%.

`O=C1CCC2(CN(C(=O)c3ccc(-c4cc(OC(F)(F)F)ccc4F)cc3)C2)N1` [Example 61, 2-((2′-fluoro-5′-(trifluoromethoxy)biphenyl-4-yl)carbonyl)-2,5-diazaspiro[3.4]octan-6-one]: the inhibition at 10 µM amounted to 97%.

For the compound `O=C1CCC2(CN(C(=O)N3CC(COc4cc(Br)c(C(F)(F)F)cc4F)C3)C2)N1` [Example 24, 2-((3-((5-bromo-2-fluoro-4-(trifluoromethyl)phenoxy)methyl)azetidin-1-yl)carbonyl)-2,5-diazaspiro[3.4]octan-6-one], the inhibition at 10 µM is 103%.

In the case of `O=C1NC2(CO1)CN(C(=O)c1ccc(-c3cccc(C4(C(F)(F)F)CC4)c3)c(F)c1)C2` [Example 335, 2-((2-fluoro-3′-(1-(trifluoromethyl)cyclopropyl)biphenyl-4-yl)carbonyl)-7-oxa-2,5-diazaspiro[3.4]octan-6-one], the inhibition at 10 µM stood at 100%.

As for `O=C1CCC2(CN(C(=O)c3cc4cc(Br)ccc4s3)C2)N1` [Example 250, 2-((5-bromo-1-benzothiophen-2-yl)carbonyl)-2,5-diazaspiro[3.4]octan-6-one], the inhibition at 10 µM turned out to be 86%.

`O=C1CCC2(CN(C(=O)c3ccc4scc(-c5ccc(F)cc5)c4c3)C2)N1` [Example 175, 2-((3-(4-fluorophenyl)-1-benzothiophen-5-yl)carbonyl)-2,5-diazaspiro[3.4]octan-6-one]: the inhibition at 10 µM came to 88%.

With `O=C1CCC2(CN(C(=O)c3ccc(-c4cccc(OCC(F)(F)F)c4)cc3)C2)N1` [Example 170, 2-((3′-(2,2,2-trifluoroethoxy)biphenyl-4-yl)carbonyl)-2,5-diazaspiro[3.4]octan-6-one], the inhibition at 10 µM was 99%.

As for `O=C1NC2(CO1)CN(C(=O)[C@H]1C[C@H](OCc3ccc(C(F)(F)F)cc3Cl)C1)C2` [Example 350, 2-((trans-3-((2-chloro-4-(trifluoromethyl)benzyl)oxy)cyclobutyl)carbonyl)-7-oxa-2,5-diazaspiro[3.4]octan-6-one], the inhibition at 10 µM amounted to 100%.

Regarding `O=C1CCC2(CN(C(=O)c3ccc(-c4cccc(OCC5CC5)c4)cc3)C2)N1` [Example 171, 2-((3′-(cyclopropylmethoxy)biphenyl-4-yl)carbonyl)-2,5-diazaspiro[3.4]octan-6-one], the inhibition at 10 µM came out at 98%.

With `O=C1CCC2(CN(C(=O)c3sc4cc(-c5ccc(C(F)F)cc5)ccc4c3Cl)C2)N1` [Example 219, 2-((3-chloro-6-(4-(difluoromethyl)phenyl)-1-benzothiophen-2-yl)carbonyl)-2,5-diazaspiro[3.4]octan-6-one], the inhibition at 10 µM turned out to be 94%.

Take `O=C1CCC2(CN(C(=O)N3CCC(COc4ccc(C(F)(F)F)cc4Cl)CC3)C2)N1` [Example 3, 2-((4-((2-chloro-4-(trifluoromethyl)phenoxy)methyl)piperidin-1-yl)carbonyl)-2,5-diazaspiro[3.4]octan-6-one]: the inhibition at 10 µM came to 102%.

For the compound `O=C1NC2(CO1)CN(C(=O)c1sc3cc(F)ccc3c1Cl)C2` [Example 361, 2-((3-chloro-6-fluoro-1-benzothiophen-2-yl)carbonyl)-7-oxa-2,5-diazaspiro[3.4]octan-6-one], the inhibition at 10 µM stood at 99%.

As to `O=C1NC2(CO1)CN(C(=O)c1sc3cc(C4=CCC(F)(F)CC4)cc(F)c3c1Cl)C2` [Example 309, 2-((3-chloro-6-(4,4-difluorocyclohex-1-en-1-yl)-4-fluoro-1-benzothiophen-2-yl)carbonyl)-7-oxa-2,5-diazaspiro[3.4]octan-6-one], the inhibition at 10 µM was determined as 101%.

With `Cc1cc(-c2ccc3c(Cl)c(C(=O)N4CC5(CCC(=O)N5)C4)sc3c2)c(C)s1` [Example 233, 2-((3-chloro-6-(2,5-dimethyl-3-thienyl)-1-benzothiophen-2-yl)carbonyl)-2,5-diazaspiro[3.4]octan-6-one], the inhibition at 10 µM was found to be 101%.

In the case of `O=C1NC2(CCN(C(=O)c3sc4cc(OC(F)(F)F)c(F)cc4c3Cl)C2)CO1` (centres unmarked) [Example 339, 7-((3-chloro-5-fluoro-6-(trifluoromethoxy)-1-benzothiophen-2-yl)carbonyl)-3-oxa-1,7-diazaspiro[4.4]nonan-2-one], the inhibition at 10 µM was determined as 100%.

With `O=C1NC2(CO1)CN(C(=O)c1sc3cc(C(F)(F)F)ccc3c1Cl)C2` [Example 241, 2-((3-chloro-6-(trifluoromethyl)-1-benzothiophen-2-yl)carbonyl)-7-oxa-2,5-diazaspiro[3.4]octan-6-one], the inhibition at 10 µM was found to be 101%.

Regarding `O=C1CCC2(CN(C(=O)c3ccc(-c4ccc5sc(C(F)(F)F)nc5c4)cc3)C2)N1` [Example 65, 2-(4-(2-(trifluoromethyl)-1,3-benzothiazol-5-yl)benzoyl)-2,5-diazaspiro[3.4]octan-6-one], the inhibition at 10 µM stood at 85%.

With `O=C1CCC2(CN(C(=O)c3cc4ccc(Cl)cc4s3)C2)N1` [Example 147, 2-((6-chloro-1-benzothiophen-2-yl)carbonyl)-2,5-diazaspiro[3.4]octan-6-one], the inhibition at 10 µM was found to be 83%.

Turning to `O=C1NC2(CCN(C(=O)c3sc4cc(F)cc(Cl)c4c3Cl)C2)CO1` (centres unmarked) [Example 332, 7-((3,4-dichloro-6-fluoro-1-benzothiophen-2-yl)carbonyl)-3-oxa-1,7-diazaspiro[4.4]nonan-2-one], the inhibition at 10 µM stood at 100%.

`O=C1NC2(CO1)CN(C(=O)[C@H]1C[C@H](OCc3ccc(Cl)cc3Cl)C1)C2` [Example 348, 2-((trans-3-((2,4-dichlorobenzyl)oxy)cyclobutyl)carbonyl)-7-oxa-2,5-diazaspiro[3.4]octan-6-one]: the inhibition at 10 µM was found to be 100%.

As to `O=C1NC2(CCN(C(=O)c3sc4c(F)c(OC(F)(F)F)ccc4c3Cl)C2)CO1` (centres unmarked) [Example 338, 7-((3-chloro-7-fluoro-6-(trifluoromethoxy)-1-benzothiophen-2-yl)carbonyl)-3-oxa-1,7-diazaspiro[4.4]nonan-2-one], the inhibition at 10 µM came out at 100%.

Take `O=C1CCC2(CN(C(=O)c3ccc4nc(-c5ccc(F)cc5)oc4c3)C2)N1` [Example 13, 2-((2-(4-fluorophenyl)-1,3-benzoxazol-6-yl)carbonyl)-2,5-diazaspiro[3.4]octan-6-one]: the inhibition at 10 µM stood at 89%.

As for `O=C1CCC2(CN(C(=O)N3CCC(F)(Cc4ccc(F)cc4)CC3)C2)N1` [Example 97, 2-((4-fluoro-4-(4-fluorobenzyl)piperidin-1-yl)carbonyl)-2,5-diazaspiro[3.4]octan-6-one], the inhibition at 10 µM was 96%.

On to `O=C1CCC2(CN(C(=O)N3CC(COc4ccc5c(c4)CCC5)C3)C2)N1` [Example 19, 2-((3-((2,3-dihydro-1H-inden-5-yloxy)methyl)azetidin-1-yl)carbonyl)-2,5-diazaspiro[3.4]octan-6-one], for which the inhibition at 10 µM was determined as 102%.

Consider `O=C1CCC2(CN(C(=O)c3ccc(-c4ccc(Cl)cc4Cl)cc3)C2)N1` [Example 84, 2-((2′,4′-dichlorobiphenyl-4-yl)carbonyl)-2,5-diazaspiro[3.4]octan-6-one], for which the inhibition at 10 µM worked out at 101%.

For `O=C1CCC2(CN(C(=O)c3ccc(-c4c(F)cc(F)cc4F)cc3)C2)N1` [Example 77, 2-((2′,4′,6′-trifluorobiphenyl-4-yl)carbonyl)-2,5-diazaspiro[3.4]octan-6-one], the inhibition at 10 µM came to 88%.

Still in this assay, the particulars now being: MAGL inhibitory rate, test compound 10 μM, 60 min preincubation, 2-arachidonylglycerol substrate; 10 µM.
As for `O=C1NC2(CCN(C(=O)c3sc4cc(OC(F)(F)F)ccc4c3Cl)C2)CO1` (centres unmarked) [Example 324, 7-((3-chloro-6-(trifluoromethoxy)-1-benzothiophen-2-yl)carbonyl)-3-oxa-1,7-diazaspiro[4.4]nonan-2-one], the “% inhibition (10 μM)” value worked out at 94%.

As for `O=C1NC2(CO1)CN(C(=O)[C@H]1C[C@@H](OCc3ccc(C(F)(F)F)cc3F)C1)C2` (stereo in doubt) [Example 355, 2-((cis-3-((2-fluoro-4-(trifluoromethyl)benzyl)oxy)cyclobutyl)carbonyl)-7-oxa-2,5-diazaspiro[3.4]octan-6-one], the “% inhibition (10 μM)” value worked out at 99%.
